Converted amounts (≈) assume the structure as drawn.
Legend:
Assay in all cases: In vitro antibacterial activity (MIC)
Format in all cases: cell-based
Escherichia coli = system: Escherichia coli
Text: (§1) The compound of formula I, wherein R^1 is hydrogen, and salts thereof, are active as antibacterial agents of medium potency both in vitro and in vivo, and the compounds of formula I, wherein R^1 is an ester-forming residue readily hydrolyzable in vivo are active as antibacterial agents of medium potency in vivo.

Serratia marcescens = system: Serratia marcescens
Text: as §1

Enterobacter clocae = system: Enterobacter clocae
Text: as §1

Staphylococcus aureus = system: Staphylococcus aureus
Text: as §1

Salmonella typhimurium = conditions: Salmonella enterica
Text: as §1

Hemophilus influenzae = conditions: Haemophilus influenzae
Text: as §1

Streptococcus faecalis = conditions: Enterococcus faecalis
Text: as §1

Pseudomonas putida = system: Pseudomonas putida
Text: as §1

Neisseria gonorrhoeae = system: Neisseria gonorrhoeae
Text: as §1

Proteus morgani = system: Proteus morgani
Text: as §1

Proteus mirabilis = system: Proteus mirabilis
Text: as §1

Klebsiella pneumoniae = system: Klebsiella pneumoniae
Text: as §1

Streptococcus pyogenes = system: Streptococcus pyogenes
Text: as §1

Pseudomonas aeruginosa = system: Pseudomonas aeruginosa
Text: as §1

Enterobacter aerogenes = conditions: Klebsiella aerogenes
Text: as §1

Citrobacter freundii = system: Citrobacter freundii
Text: as §1

Staphylococcus epidermis = system: Staphylococcus epidermis
Text: as §1

Providencia = system: Providencia
Text: as §1

Pasteurella multocida = system: Pasteurella multocida
Text: as §1

`CC1(C)[C@H](C(=O)O)N2C(=O)C[C@H]2S1(=O)=O` [Penicillanic Acid 1,1-Dioxide] gave an MIC (Escherichia coli) of 50 µg/mL (≈ 214 µM), an MIC (Serratia marcescens) of 100 µg/mL (≈ 429 µM) and an MIC (Enterobacter clocae) of 100 µg/mL (≈ 429 µM). It also gave an MIC (Staphylococcus aureus) of 100 µg/mL (≈ 429 µM), an MIC (Salmonella typhimurium) of 50 µg/mL (≈ 214 µM) and an MIC (Hemophilus influenzae) of 50 µg/mL (≈ 214 µM). It also gave an MIC (Streptococcus faecalis) of 200 µg/mL (≈ 857 µM), an MIC (Pseudomonas putida) of 200 µg/mL (≈ 857 µM) and an MIC (Neisseria gonorrhoeae) of 0.312 µg/mL (≈ 1.34 µM). For the same molecule, the MIC (Proteus morgani) was 100 µg/mL (≈ 429 µM), the MIC (Proteus mirabilis) was 100 µg/mL (≈ 429 µM) and the MIC (Klebsiella pneumoniae) was 50 µg/mL (≈ 214 µM). For the same molecule, the MIC (Streptococcus pyogenes) was 100 µg/mL (≈ 429 µM), the MIC (Pseudomonas aeruginosa) was 200 µg/mL (≈ 857 µM) and the MIC (Enterobacter aerogenes) was 25 µg/mL (≈ 107 µM). For the same molecule, the MIC (Citrobacter freundii) was 50 µg/mL (≈ 214 µM), the MIC (Staphylococcus epidermis) was 200 µg/mL (≈ 857 µM) and the MIC (Providencia) was 100 µg/mL (≈ 429 µM). It also gave an MIC (Pasteurella multocida) of 50 µg/mL (≈ 214 µM).
